Measurements as given in patent US20110150914A1, “COMPOSITIONS AND METHODS FOR DENGUE VIRUS (DV) TREATMENT AND VACCINATION” (priority 2008, published 2011).
Like-named read-outs stand apart in the source and are kept apart here. Ends that are not written are not given here.

Tests used:
[1] = biological target: T1, purified H-2 D^b molecules (Mus musculus, UniProt P01899); assay: MHC peptide-binding assay, purified H-2 D^b
T1 construct: made in house
Protocol: (§1) Briefly, 0.1-1 nM of radiolabeled peptide was co-incubated at room temperature with 1 μM to 1 nM of purified MHC in the presence of 1-3 μM human β2-microglobulin (Scripps Laboratories) and a mixture of protease inhibitors. After a 2 day incubation, binding of the radiolabeled peptide to the corresponding MHC class I molecule was determined by capturing MHC/peptide complexes on Lumitrac 600 microplates (Greiner Bio-One) coated with either the Y3 (anti-H-2 K^b) or 28-14-8S (anti-H-2 D^b, L^d and D^q) Ab, followed by measurement of bound counts per minute (cpm) using the TopCount microscintillation counter (Packard).

[2] = biological target: T2, purified H-2 K^b molecules (Mus musculus, UniProt P01901); assay: MHC peptide-binding assay, purified H-2 K^b
T2 construct: made in house
Protocol: as §1, with “MHC purification and quantitative assays to measure the binding affinity of peptides to purified H-2 K^b and H-2 D^b molecules were performed as previously described (Sidney et al., Curr Protoc Immunol 18:1813 2001); Vitiello et al., J Immunol 157:5555 (1996)). Briefly,” for “Briefly,”
To confirm the MHC class I restriction of the 12 identified epitopes, measurements were performed of their MHC binding capacity using purified K^b and D^b molecules in an in vitro binding assay. Seven of the 12 epitopes bound the predicted allele with either high or intermediate affinity, as indicated by an IC50 of <50 nM or <500 nM, respectively. The five remaining epitopes also bound with biologically relevant affinities in the 500-2000 nM range.

CD8^+ T cells [3] = assay: IFN-γ ELISPOT with CD8^+ T cells of DENV2-infected C57BL/6 mice; format: cell-based; settings: PL046 or S221 infected C57BL/6 mice
[4] = system: DENV peptide-pulsed target cells; assay: In vivo cytotoxicity assay; settings: IFN-α/βR^−/− mice infected 7 days previously with 10^10 GE S221; 4 h after i.v. transfer; targets pulsed 0.5 μg/ml
CD8^+ T cells [5] = assay: IFN-γ ELISPOT, HLA A*0201 transgenic mice; format: cell-based; settings: HLA-A*0201-restricted Jurkat cells as APC, peptide 1 μg/ml, day 7 after 10^11 GE S221
Protocol: The proteome of the DENV2 strain, S221, was inspected for the presence of peptides predicted to bind HLA A*0201 with high affinity. A total of 68 potential H-2^b binding peptides were identified. HLA A*0201 transgenic mice were infected i.v. with 10^11 GE of the DENV2 strain, S221. Seven days post-infection, splenocytes were harvested and CD8^+ T cells isolated. CD8^+ T cells (1.75×10^5) were stimulated with HLA-A*0201-restricted Jurkat cells and 1 μg/ml of individual S221-derived A*02-predicted binding peptides, and IFN-γ ELISPOT was performed. The data are expressed as the mean number of net spot-forming cells (SFC) per 10^6 CD8^+ T cells. The top 20 predicted epitopes, which includes the two positive peptides identified (indicated with an asterisk), are shown. The criteria for positivity were a stimulation index of ≧2.0, p<0.05 when compared with an irrelevant control peptide, and net SFC/10^6 cells of ≧20.
The proteome of the DENV2 strain, S221, was inspected for the presence of peptides predicted to bind HLA A*0201 with high affinity. A total of 68 potential H-2^b binding peptides were identified. HLA A*0201 transgenic mice were infected intravenously (i.v.) with 10^11 GE of the DENV2 strain, S221. […] Referring to FIG. 11, the data are expressed as the mean number of net spot-forming cells (SFC) per 10^6 CD8^+ T cells. […]

CD8^+ T cells [6] = assay: Intracellular cytokine staining (IFN-γ), splenocytes of S221-infected wild-type mice; format: cell-based, C57BL/6 mice; settings: wild-type C57BL/6, day 7 after 10^11 GE S221, peptide 0.1 μg/ml, 5 h
Protocol: (§2) All Ab were purchased from eBioscience with the exception of anti-CD8α-PerCP and anti-CD107a-FITC which were obtained from BD Biosciences. RBC in blood were lysed using RBC lysis buffer (eBioscience). For surface staining, splenocytes or blood cells were washed, incubated with supernatant from 2.4G2-producing hybridoma cells to block Fc receptors, and labeled with anti-CD8α-PerCP, anti-CD44-APC, and anti-CD62L-PE. For intracellular cytokine staining, 10^6 splenocytes or 10^5 blood cells were plated in 96-well U-bottom plates and stimulated with individual DENV peptides (0.1 μg/ml) in the presence of brefeldin A (GolgiPlug, BD Biosciences) for 5 h. For CD107a staining, CD107a-FITC (or rat IgG2a-FITC) was added to the wells at the same time as the peptide. Cells were washed, incubated with 2.4G2 supernatant, labeled with anti-CD8α-PerCP, fixed and permeabilized using the BD Cytofix/Cytoperm Kit, and stained with anti-IFN-γ-APC and anti-TNF-α-PE. Samples were read on a FACS Caliber (BD Biosciences) and analyzed using FloJo software (Tree Star, Inc.)
To confirm that the IFN-γ response to the MHC class I-binding DENV peptides was mediated by CD8^+ T cells, intracellular cytokine staining (ICS) on CD8^+ T cells isolated from S221-infected wild-type mice was performed. Splenocytes were harvested from C57BL/6 mice 7 days after infection with 10^11 genomic equivlalents (GE) S221 and were re-stimulated in vitro with individual DENV2 peptides or an irrelevant peptide (irr) at 0.1 μg/ml in the presence of brefeldin A for 5 h. Cells were then stained for surface CD8 and intracellular IFN-γ and analyzed by flow cytometry. […] The percent of CD8^+ T cells producing IFN-γ is indicated. Referring to FIG. 2B, the figure is a summary of the DENV2-specific CD8^+ IFN-γ^+ response. The response to the irrelevant control peptide was subtracted from the responses to each DENV2 peptide. Each symbol represents one mouse and the bar represents the geometric mean. The identification of the 12 positive peptides for S221 was confirmed by the intracellular cytokine staining (ICS) (FIG. 2A), and the response to the 8 most dominant peptides was determined (FIG. 2B). The responses ranged from 0.14% recognizing NS2A 36 to 9.8% of CD8^+ T cells recognizing NS4B 99.
Splenocytes were harvested from naïve C57BL/6 mice or mice 7 days after infection with 10^11 GE of S221. The percent of CD8^+ T cells expressing CD44 and CD62L was determined in four independent studies (FIG. 3A). On day 7 after infection, splenocytes were stimulated with the eight major DENV2 peptides (individually; at 0.1 μg/ml) in the presence of brefeldin A, and stained for surface CD8 and intracellular IFN-γ. The percent of CD8^+ T cells producing IFN-γ in response to the irrelevant control peptide was subtracted from the response to each DENV2 peptide to determine the net response. The net responses to the eight major DENV2 peptides were added to determine the percent of DENV2-specific CD44^hi, CD62^lo, and CD44^hiCD62L^lo CD8^+ T cells (FIG. 3B). The data are expressed as the mean percent±SEM of 11-14 mice tested in at least four independent experiments.

CD8^+ T cells [7] = assay: TNF-α and CD107a staining after peptide re-stimulation; format: cell-based, wild-type or IFN-α/βR^−/− mice; settings: splenocytes day 7 after S221 infection
Protocol: as §2
Because polyfunctional CD8^+ T cell responses are associated with protection (Harari et al., Immunol Rev 211:236 (2006)), the phenotype of the DENV-specific CD8^+ T cells in wild-type and IFN-α/βR^−/− mice was studied in more detail by measuring CD107a expression (CD107a, or LAMP-1, is expressed on the cell surface upon degranulation) and TNF-α production for two of the DENV-specific CD8^+ T cell populations, as described above. To collect the data, splenocytes harvested from wild-type or IFN-α/βR^−/− mice 7 days after infection with 10^11 or 10^10 GE of S221, respectively, were re-stimulated in vitro with C51-59, NS4B99-107, or an irrelevant peptide. An anti-CD107a Ab was added for the duration of the stimulation. Cells were then stained for surface CD8, intracellular IFN-γ and TNF-α, and analyzed by flow cytometry.

CD8^+ T cells [8] = assay: Intracellular cytokine staining (IFN-γ), splenocytes of S221-infected IFN-α/βR^−/− mice; format: cell-based; settings: day 7 after 10^10 GE S221
Protocol: as §2
The S221-specific CD8^+ T cell response in the IFN-α/βR^−/− mice was studied. […]
The S221-specific CD8^+ T cell response in IFN-α/βR^−/− mice was further studied. […] Referring to FIGS. 5C, 5E and 5F, the number of splenic CD8^+ T cells in naïve (n=4) and infected (n=7) mice was measured (results described above). […] The data are expressed as the percent±SEM of seven mice tested in three independent experiments.
The initial epitope identification studies were performed in wild-type mice. […] Cells were then stained for surface CD8 and intracellular IFN-γ and analyzed by flow cytometry. […] Results are expressed as the mean±SEM of 13 wild-type and 7 IFN-α/βR^−/− mice were tested in at least three independent experiments. Referring FIGS. 8C and D, the figures show kinetics of the DENV-specific CD8^+ T cell response as determined by the study. […]

[9] = purified MHC, radiolabeled peptide competition, read-out: Binding affinity (IC50 nM) H2-D^b
[10] = purified MHC, radiolabeled peptide competition, read-out: Binding affinity (IC50 nM) H2-K^b

T1 sequence (P61769 21-119): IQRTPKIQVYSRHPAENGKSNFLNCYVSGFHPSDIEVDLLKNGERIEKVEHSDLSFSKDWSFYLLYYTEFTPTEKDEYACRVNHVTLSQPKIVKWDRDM
T1 sequence (P01899 25-362): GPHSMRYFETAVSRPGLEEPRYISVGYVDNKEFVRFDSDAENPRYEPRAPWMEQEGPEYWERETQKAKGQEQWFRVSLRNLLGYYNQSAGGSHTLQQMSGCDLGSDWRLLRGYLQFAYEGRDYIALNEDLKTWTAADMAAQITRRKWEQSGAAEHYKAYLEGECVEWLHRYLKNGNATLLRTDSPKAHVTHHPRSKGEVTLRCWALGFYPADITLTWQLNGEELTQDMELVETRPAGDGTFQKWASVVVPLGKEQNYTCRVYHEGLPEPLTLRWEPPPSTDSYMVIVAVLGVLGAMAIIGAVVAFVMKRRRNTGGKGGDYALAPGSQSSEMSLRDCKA
T2 sequence (P61769 21-119): as the sequence (P61769 21-119) above
T2 sequence (P01901 22-369): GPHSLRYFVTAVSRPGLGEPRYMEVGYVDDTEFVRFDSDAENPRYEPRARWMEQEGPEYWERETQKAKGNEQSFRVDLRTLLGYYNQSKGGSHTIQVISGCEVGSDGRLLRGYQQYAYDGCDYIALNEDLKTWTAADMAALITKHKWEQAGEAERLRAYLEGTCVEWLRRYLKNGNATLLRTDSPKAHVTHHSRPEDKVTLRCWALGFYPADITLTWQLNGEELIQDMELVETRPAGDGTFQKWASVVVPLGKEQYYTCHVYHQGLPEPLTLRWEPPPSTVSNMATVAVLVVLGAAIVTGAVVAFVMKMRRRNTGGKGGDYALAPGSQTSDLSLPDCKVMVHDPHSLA

Sequence	IC50 [1, 9]	IC50 [2]	IFN-γ ELISPOT response (net SFC per 10^6 CD8^+ T cells), in words (CD8^+ T cells [3])	IC50 [2, 10]	other results
RMLINRFTM [NS5237-45]	21 nM	> 2000 nM	highest responses		percentage killing of peptide-pulsed target cells [4]: 46%
VSWTMKIL [Epitope E451-458]					IC50 [1]: > 2000 nM
RLITVNPIV					IFN-γ ELISPOT positivity (CD8^+ T cells [5]): positive
KLAEAIFKL (listed as Dengue virus)					IFN-γ ELISPOT positivity (CD8^+ T cells [5]): positive
LAVTIMAIL [NS2A145-153]	644 nM	> 2000 nM			
VAVSFVTLI [NS2A36-44]	997 nM			12 nM	percent of CD8^+ T cells producing IFN-γ / recognizing the peptide (CD8^+ T cells [6]): 0.14%
MTMRCIGI [Epitope E-2-6]			highest responses	1080 nM	IC50 [1]: > 2000 nM
TAIANQATV [NS4B66-74]	1.3 nM	> 2000 nM			
GMLQGRGPL [Epitope C36-44]	820 nM			1340 nM	
VAFLRFLTI [Epitope C51-59]	1380 nM		highest responses	20 nM	CD107a surface expression (degranulation) (CD8^+ T cells [7]): expressed CD107a on the surface; TNF-α production by peptide-specific CD8^+ T cells (CD8^+ T cells [7]): produced TNF-α
FSLGVLGM [NS2A8-15]	1800 nM	> 2000 nM	highest responses		
RALIFILL [Epitope M60-67]				22 nM	IC50 [1]: > 2000 nM; percent of CD8^+ T cells producing IFN-γ / recognizing the peptide (CD8^+ T cells [6]): 0.4%; % of splenic CD8^+ T cells recognizing the peptide (CD8^+ T cells [8]): 11%
